{"source": "patent US20230391824A1", "about": "“RATIONALE, DESIGN, SYNTHESIS AND VALIDATION OF A SMALL MOLECULE ANTICANCER AGENT” (priority 2021, published 2023)", "key": {"[1]": {"test_system": "BHQ1-pre-let7a and EGFP-Lin28A bound complexes", "assay": "FRET assay, displacement of BHQ1-pre-let7a from EGFP-Lin28A", "format": "binding", "conditions": "at 100 μM", "experimental": "This method was adapted from Roos et al (2016). HEK 293-T cells (ATCC) were cultured as monolayers in DMEM GlutaMAX™-1 (Cat #31966-021, Gibco®, Life Technologies) supplemented with 10% of FBS (fetal bovine serum). Stable EGFP-Lin28A HEK 293-T cells were cultured as monolayers in DMEM supplemented with 10% of FBS (fetal bovine serum) and 0.5 mg/ml Geneticin G418 (10131-035, Life Technologies). Transfections were performed according to the manufacturer's protocol with […] (12252-011, Invitrogen, Life Technologies) for siRNAs and JetPEI (101-10, Polyplus transfections) was used for plasmid DNA. […]\n160,000 HEK 293 T cells were seeded per well in 6 well plates and transfected with 320 ng pEGFP-C2-Lin28A plasmid according to the experimental setup with the reagents described above and cells were allowed to recover for 48h. […] The EGFP-lin28A| expressing cells were sorted using Fluorescence Activated Cell Sorting (FACS). Finally, larger colonies of individual clones were analyzed for expression levels of EGFP-Lin28A by performing the FRET assay. […]\nFRET system (EGFP-Lin28A and 19B-let7a) treated with DMSO was used as positive control. […] The FRET measurements were obtained from the optimized fluorescence parameter. […] The average signal intensity and background fluorescence were corrected with compound self-fluorescence with and without binding buffer."}, "[2]": {"molecular_target": "T1, Lin28A protein (Homo sapiens, UniProt Q9H9Z2)", "T1 construct": "in a panel of endogenously LIN28 expressing cancer cell models; endogenous in cells; host or cells: T47D, YP-MEL, BT-12, BT-37, NT-2 (NTERA)", "T1 sequence (Q9H9Z2 1-209)": "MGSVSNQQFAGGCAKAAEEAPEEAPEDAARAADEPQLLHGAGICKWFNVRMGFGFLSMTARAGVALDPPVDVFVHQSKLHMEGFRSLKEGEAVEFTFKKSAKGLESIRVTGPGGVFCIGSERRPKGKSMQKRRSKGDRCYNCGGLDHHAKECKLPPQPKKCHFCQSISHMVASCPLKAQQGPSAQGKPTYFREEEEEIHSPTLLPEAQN", "assay": "Western blotting of Lin28A protein in cancer cell models", "format": "cell-based", "conditions": "YP-MEL, BT-37, NT-2 cells", "experimental": "(§1) FIG. 5: Compound of formula (I) mixture, containing the two isomers (P1+P2) causes significant reduction in Lin28A protein from 5 μM onwards, in a panel of endogenously LIN28 expressing cancer cell models. […] LIN28A and LIN28B expression profile in pediatric CNS cancer cell lines, 96-hr post-treatment with Compound of formula (I). SDS-PAGE on 10% polyacrylamide gel of total cell lysates from untreated cells harvested at 80-90% confluency. Samples loaded with volumes for 20 μg protein. LIN28A and LIN28B proteins were detected using the anti-LIN28A antibody (#8706; Cell Signaling Technology) and anti-LIN28B antibody (#11965; Cell Signalling Technology) at 1:2000 dilutions. T47D: adult breast cancer (LIN28A expressing); YPMEL: malignant melanoma derived from Neurocutaneous Melanosis (NCM) (Lin28A and Lin28B expressing); BT-12: pediatric atypical-teratoid rhabdoid tumor (AT/RT).\nFIG. 7A-C: To determine the differences in the biological activity of the two isomers (P1+P2) of Compound of formula (I), we tested the effects of purified and separated P1 and P2 isomers on the protein expression of Lin28A and Lin28B. (A) YP-MEL (NCM). (B) BT-37 (AT/RT). (C) NT-2 (NTERA) (Testicular cancer).\n(§2) The proteins were extracted from the same samples as the RNA using the RIPA lysis buffer. The protein extracts (20 μg) were run on 10% SDS-PAGE and transferred on a nitrocellulose blotting membrane 0.22 μm (GE Healthcare) using the Trans-Blot® SD semi-dry transfer devise (Biorad). The proteins were detected using the anti-Lin28A antibody (#8706; Cell Signaling Technology), anti-Lin28B antibody (#11965, Cell Signaling Technology) the anti-beta-actin antibody at respectively 1:2000, 1:2000 and 1:5000 dilutions."}, "[3]": {"assay": "Solubility", "format": "physicochemical", "conditions": "DMSO, organic solvent or mixture; read-out: solubility in DMSO"}, "[4]": {"test_system": "NT-2 testicular cancer cells", "assay": "Flow cytometric (propidium iodide) cell cycle analysis of NT-2 cells", "format": "cell-based", "conditions": "24h, compared with P1", "experimental": "FIG. 9: NT-2, testicular cancer cells, were incubated with Compound of formula (I) isomers for 24h and subjected to Flow Cytometric analysis to determine the alterations in cancer cell cycle. […] Therefore, only the P1 isomer of Compound of formula (I) was investigated further to determine its in vitro and in vivo efficacy.\nThe method for Propidium Iodide (PI) based cell cycle analysis was performed as per the instructions given by the manufacturer (AB139418; Abcam). Briefly NT-2 cells treated with Compound of formula (I) versions were harvested in single cell suspensions with each experimental condition containing two million cells, fixed in 66% Ethanol overnight at 4° C. The ethanol was removed thoroughly by centrifugation, followed by rehydration of cells in PBS with a repeat of centrifugation. Cells were stained in PI (1%) and RNase solution (1%) in PBS for 30 minutes at 37° C. in the dark. The cells were analyzed immediately on the Flow Cytometer."}, "[5]": {"molecular_target": "T2, LIN28B protein (Homo sapiens, UniProt Q6ZN17)", "T2 construct": "in a panel of endogenously LIN28 expressing cancer cell models; endogenous in cells; host or cells: YP-MEL, BT-12, BT-37, NT-2 (NTERA)", "T2 sequence (Q6ZN17 1-250)": "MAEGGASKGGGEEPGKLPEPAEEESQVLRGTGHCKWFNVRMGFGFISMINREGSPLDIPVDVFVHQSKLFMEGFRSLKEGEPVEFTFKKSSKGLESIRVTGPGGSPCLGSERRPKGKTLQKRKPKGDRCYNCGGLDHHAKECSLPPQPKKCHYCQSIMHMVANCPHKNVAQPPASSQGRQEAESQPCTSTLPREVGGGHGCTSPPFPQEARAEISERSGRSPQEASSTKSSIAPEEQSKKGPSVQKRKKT", "assay": "Western blotting of Lin28B protein in cancer cell models", "format": "cell-based", "conditions": "YP-MEL, BT-37, NT-2 cells; at the tested dosages", "experimental": "as §1, with “(AT/RT). […]” for “(AT/RT).”\nThe proteins were extracted from the same samples as the RNA using the RIPA lysis buffer. […] The proteins were detected using the anti-Lin28A antibody (#8706; Cell Signaling Technology), anti-Lin28B antibody (#11965, Cell Signaling Technology) the anti-beta-actin antibody at respectively 1:2000, 1:2000 and 1:5000 dilutions."}, "[6]": {"test_system": "stem cell tumor spheres", "assay": "Stem cell tumor spheres, western blotting of stemness and differentiation markers", "format": "cell-based", "experimental": "FIG. 12: Dose-dependent effect of Compound of formula (I) on the stem cell tumor spheres, in the presence of LIF—a pluripotency supplement used for maintenance of stem cell population (Panel A). As determined by western blotting, Compound of formula (I) begins to halt the expression of stemness markers (Nestin, LIN28A, Oct-4) and induces elevation of differentiation markers (GFAP), from 1 μM onwards (Panel B).\nas §2"}, "[7]": {"test_system": "LIN28A-positive cancer cell models", "assay": "Alamar Blue cell viability, LIN28A-positive versus LIN28B-expressing cancer cell models", "format": "cell-based", "conditions": "relative to LIN28B-expressing cancer cell models", "experimental": "FIG. 6: Cells were cultured in the presence of the Compound of formula (I) (P1+P2) at increasing concentrations and cell viability was evaluated using Alamar Blue dye and measurement at Excitation of 550 nm and Emission of 590 nm. All the data shown are representative of three replicates. […] LIN28A and LIN28B expression in the presence of Compound of formula (I) correlates with the sensitivity of cells to this inhibitor.\nFIG. 8A-F: Cells were cultured in the presence of the Compound of formula (I) (versions P1, P2 or P1+P2 at equipotent doses) at increasing concentrations and cell viability was evaluated using Alamar Blue dye and measurement at Excitation of 550 nm and Emission of 590 nm. All the data shown are representative of three replicates. […] A. NT-2 cell viability. B. YP-MEL cell viability. C. WI-38 cell viability. D. T47D cell viability. E. BT-12 cell viability. F. summary of Lin28A and Lin28B status.\nFIG. 8A-F. Cells were cultured in the presence of the Compound of formula (I) (versions P1, P2 or P1+P2 at equipotent doses) at increasing concentrations and cell viability was evaluated using Alamar Blue dye and measurement at Excitation of 550 nm and Emission of 590 nm. All the data shown are representative of three replicates. […] A. NT-2 cell viability. B. YP-MEL cell viability. C. WI-38 cell viability. D. T47D cell viability. E. BT-12 cell viability. […]"}, "[8]": {"test_system": "let-7a miRNA", "assay": "Taqman miRNA qRT-PCR of let-7a", "format": "cell-based", "experimental": "FIG. 11: Compound of formula (I) lead to successful rescue of pre-Iet-7a and their maturation to miRNA let-7a tumor suppressor, only at 1 μM.\nTotal RNA was extracted using the RNeasy kit (74104, Qiagen). TaqMan® qRT-PCR was performed using standard reagents from Life Technologies (TaqMan® MicroRNA Assay: hsa-let-7a: 000377). The RT was performed using the TaqMan® primers from MicroRNA Assays and the TaqMan® MicroRNA Reverse Transcription Kit (4366596, Life technologies) with 20 ng total RNA. The PCR was performed in a LightCycler 480 instrument with GoTaq® Probe qPCR Master mix (A6102, Promega) according to the manufacturer's protocol. Each reaction was carried out in three technical replicates."}}, "data": [{"smiles": "CC(=O)N(C)c1cccc(-c2ccc3nnc(C)n3n2)c1", "note": "[c1632, reference compound]", "values": [{"measurement": "FRET reduction compared with 70% by Compound of formula (I)", "setting": "[1]", "value": "equivalent FRET reduction"}]}, {"smiles": "CCC(C)C(NC(=O)C(Cc1ncc[nH]1)NC(=O)c1cccc(C(N)=O)c1)C(=O)Nc1ccc(O)c(-c2nc3ccccc3s2)c1", "note": "(centres unmarked) [Compound P2]", "values": [{"measurement": "effect on the expression levels of Lin28A", "setting": "[2]", "value": "no effect"}, {"measurement": "solubility", "setting": "[3]", "value": "< 1000", "unit": "µg/mL"}, {"measurement": "triggering of cancer cell death / changes in cancer cell viability", "setting": "[4]", "value": "failed to cause any significant changes"}, {"measurement": "Lin28B expression", "setting": "[5]", "value": "remained unaltered"}]}, {"smiles": "CC[C@H](C)[C@H](NC(=O)[C@H](Cc1ncc[nH]1)NC(=O)c1cccc(C(N)=O)c1)C(=O)Nc1ccc(O)c(-c2nc3ccccc3s2)c1", "note": "[Compound of formula (I)]", "values": [{"measurement": "effect on stemness and differentiation markers in the stem cell population", "setting": "[6]", "value": "dose dependent reduction of sternness markers and elevation of differentiation markers"}, {"measurement": "concentration from which stemness markers (Nestin, LIN28A, Oct-4) are halted and differentiation markers (GFAP) elevated", "setting": "[6]; in the presence of LIF, western blotting", "value": "≥ 1", "unit": "µM"}, {"measurement": "sensitivity of LIN28A-positive cancer cell models", "setting": "[7]", "value": "heightened sensitivity"}, {"measurement": "concentration giving rescue of pre-let-7a and maturation to miRNA let-7a", "setting": "[8]", "value": 1, "unit": "µM"}, {"measurement": "upregulation of let-7a", "setting": "[8]; Lin28B expressing BT-12 cells, relative to RNU6B", "value": "only minor upregulation"}, {"measurement": "expression of let-7a miRNA tumor suppressor", "setting": "[8]; YP-MEL, T47D, A549 cells, relative to RNU6B", "value": "increase in the expression"}]}]}
